From ChEMBL document CHEMBL1201862, “PubChem BioAssay data set” (2004)
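The compound was tested at five concentrations on cells cultured in 96-well plates, with a 48-hour exposure period. GI50: concentration for 50% inhibition of growth.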 Active and inactive are the calls of the source. Rule as the data show it: active = GI50 up to about 1.1 µM and inactive = higher.

Experiments:
Assay in all cases: NCI tumour cell line growth inhibition, 48 h
OVCAR-3 = system: OVCAR-3
CCRF-CEM = system: CCRF-CEM
NCI-H23 = system: NCI-H23
SNB-19 = system: SNB-19
SK-MEL-5 = system: SK-MEL-5
HCC 2998 = system: HCC 2998
HOP-92 = system: HOP-92
OVCAR-8 = system: OVCAR-8
SNB-78 = system: SNB-78
SF-268 = system: SF-268
COLO 205 = system: COLO 205
IGROV-1 = system: IGROV-1
RXF 393 = system: RXF 393
SNB-75 = system: SNB-75
K562 = system: K562
SN12C = system: SN12C
LXFL 529 = system: LXFL 529

Measured: GI50

O=C(O)C1=C(Cl)c2ccccc2S1(=O)=O
inactive: OVCAR-3 > 10 µM | CCRF-CEM > 100 µM | NCI-H23 > 100 µM | SNB-19 > 100 µM | SK-MEL-5 > 100 µM | HCC 2998 > 100 µM | HOP-92 > 100 µM | OVCAR-8 > 100 µM | SNB-78 > 100 µM | SF-268 > 100 µM | COLO 205 > 100 µM | IGROV-1 > 100 µM | RXF 393 > 100 µM | SNB-75 > 100 µM | K562 > 100 µM | SN12C > 100 µM | LXFL 529 > 100 µM

CN(C(=O)c1ccc([N+](=O)[O-])cc1)c1ccccc1
inactive: OVCAR-3 > 100 µM | CCRF-CEM > 100 µM | NCI-H23 > 100 µM | SNB-19 > 100 µM | HCC 2998 > 100 µM | HOP-92 > 100 µM | OVCAR-8 > 100 µM | SNB-78 > 100 µM | SF-268 > 100 µM | COLO 205 > 100 µM | IGROV-1 > 100 µM | RXF 393 21.6 µM | SNB-75 87.9 µM | K562 > 10 µM | SN12C > 100 µM | LXFL 529 > 100 µM

CC(C)(C)c1cc([Si](C)(C)C)c(C#N)c([Si](C)(C)C)c1
inactive: OVCAR-3 > 100 µM | CCRF-CEM 48.6 µM | NCI-H23 76.9 µM | SNB-19 62.1 µM | HCC 2998 90.6 µM | HOP-92 > 100 µM | OVCAR-8 > 100 µM | SNB-78 53.2 µM | SF-268 41.7 µM | COLO 205 51.3 µM | IGROV-1 > 100 µM | RXF 393 36.6 µM | SNB-75 47.3 µM | K562 > 100 µM | SN12C > 100 µM | LXFL 529 > 100 µM

CC(C)(c1ccc(Oc2ccc(C#N)c(C#N)c2)cc1)c1ccc(Oc2ccc(C#N)c(C#N)c2)cc1
inactive: OVCAR-3 > 10 µM | CCRF-CEM > 10 µM | NCI-H23 > 10 µM | SNB-19 > 10 µM | SK-MEL-5 > 10 µM | HCC 2998 > 10 µM | HOP-92 > 10 µM | OVCAR-8 > 10 µM | SNB-78 > 10 µM | SF-268 > 10 µM | COLO 205 > 10 µM | IGROV-1 > 10 µM | RXF 393 > 10 µM | SNB-75 1.78 µM | K562 > 10 µM | SN12C > 10 µM | LXFL 529 > 10 µM

CC/C(CC(=O)CCC(=O)Nc1ccccc1[N+](=O)[O-])=N/NC(=O)C[n+]1ccccc1
inactive: OVCAR-3 > 100 µM | CCRF-CEM > 100 µM | NCI-H23 > 100 µM | SNB-19 > 100 µM | SK-MEL-5 > 100 µM | HCC 2998 > 100 µM | HOP-92 > 100 µM | OVCAR-8 > 100 µM | SNB-78 > 100 µM | SF-268 > 100 µM | COLO 205 > 100 µM | IGROV-1 > 100 µM | RXF 393 > 100 µM | SNB-75 > 100 µM | K562 > 100 µM | SN12C > 100 µM | LXFL 529 > 100 µM

CN(Cc1ccccc1)C1(N(C)Cc2ccccc2)CC1
inactive: OVCAR-3 > 100 µM | CCRF-CEM > 100 µM | NCI-H23 > 100 µM | SNB-19 > 100 µM | SK-MEL-5 > 100 µM | HCC 2998 > 100 µM | HOP-92 > 100 µM | OVCAR-8 > 100 µM | SNB-78 > 100 µM | SF-268 > 100 µM | COLO 205 > 100 µM | IGROV-1 > 100 µM | RXF 393 > 100 µM | SNB-75 > 100 µM | K562 > 100 µM | SN12C > 100 µM | LXFL 529 > 100 µM
